From patent publication US20260356856A1, “KRAS G12S AND G12C INHIBITORS” (MIRATI THERAPEUTICS, INC., priority 2023, published 2026)

Assays:
[1] = biological target: T1, KRas-mediated phosphorylation of ERK in A549 cells (Homo sapiens, UniProt P01116, G12S); assay: Inhibition of KRas-mediated phosphorylation of ERK (HTRF), A549 cells; assay type: cell-based; details: HTRF pERK, 3 h incubation
T1 construct: pERK HTRF read-out

[2] = biological target: T2, KRas-mediated phosphorylation of ERK in H358 cells (Homo sapiens, UniProt P01116, G12C); assay: Inhibition of KRas-mediated phosphorylation of ERK (HTRF), H358 cells; assay type: cell-based; details: HTRF pERK, 3 h incubation
T2 construct: pERK HTRF read-out

[3] = biological target: T3, KRas-mediated phosphorylation of ERK in MKN1 cells (Homo sapiens, UniProt P01116); assay: Inhibition of KRas-mediated phosphorylation of ERK (HTRF), MKN1 cells; assay type: cell-based; details: MKN1 cells (KRas WT); HTRF pERK; 3 h incubation
T3 construct: pERK HTRF read-out
Experimental: Inhibition of KRas Phosphorylation of ERK (HTRF) by Exemplary Compounds of Formula (Ia) or (Ib)
Cisbio HTRF Advanced pERK Assay Catalog #64AERPEH • Cells: MKN1, PSN1 • Procedure: • 1. Day 1: Seed 6,000 cells/well −25 μl/well in 384-well white solid bottom plate; RPM1_10% FBS. Incubate overnight at 37 °C/5% CO2. • 2.

KRas G12C = biological target: T4, KRas G12C (Homo sapiens, UniProt P01116, G12C); assay: KRas binding assay, TR-FRET displacement of Cy5 labelled tracer; details: 60-minute incubation at room temperature, 1% DMSO, pH 7.5
T4 construct: Biotinylated KRas (corresponding to amino acids 1-169, produced at Accelegan Inc.); biotin (biotinylated); purchased Accelegan Inc
In short: (§1)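 IC50 came from fitting POC values with a four-parameter equation. Signal was read after one hour at room temperature. Protein was biotin-tagged KRas 1-169 captured by terbium streptavidin, with compound in 1% DMSO (final).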

KRas G12S = biological target: T5, KRas G12S (Homo sapiens, UniProt P01116, G12S); assay: as above; details: 60-minute incubation at room temperature, 1% DMSO, pH 7.5
T5 construct: Biotinylated KRas (corresponding to amino acids 1-169, produced at Accelegan Inc.); biotin (biotinylated); purchased Accelegan Inc
In short: as §1

KRas WT = biological target: T6, KRas WT (Homo sapiens, UniProt P01116); assay: as above; details: 60-minute incubation at room temperature, 1% DMSO, pH 7.5
T6 construct: Biotinylated KRas (corresponding to amino acids 1-169, produced at Accelegan Inc.); biotin (biotinylated); purchased Accelegan Inc
In short: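 Displacement measured on KRas residues 1-169 (biotinylated, terbium-streptavidin labelled); 1 h, RT; 1% DMSO final; HEPES pH 7.5 / MgCl2 / Tween-20 / DTT. IC50: 4-parameter fit.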

T2 sequence (P01116 1-188 isoform P01116-2 G12C): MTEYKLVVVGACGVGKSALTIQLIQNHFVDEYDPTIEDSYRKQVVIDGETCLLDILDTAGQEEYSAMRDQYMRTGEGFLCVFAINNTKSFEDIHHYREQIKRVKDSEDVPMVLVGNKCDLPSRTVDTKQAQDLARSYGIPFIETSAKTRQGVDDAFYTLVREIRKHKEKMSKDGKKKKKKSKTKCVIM
T3 sequence (P01116 1-188 isoform P01116-2): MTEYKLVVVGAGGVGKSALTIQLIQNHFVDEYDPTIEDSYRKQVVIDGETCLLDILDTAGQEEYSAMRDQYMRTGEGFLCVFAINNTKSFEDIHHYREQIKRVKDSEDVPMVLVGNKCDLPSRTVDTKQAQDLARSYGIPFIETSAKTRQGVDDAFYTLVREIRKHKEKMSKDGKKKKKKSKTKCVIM
T1 sequence (P01116 1-188 isoform P01116-2 G12S): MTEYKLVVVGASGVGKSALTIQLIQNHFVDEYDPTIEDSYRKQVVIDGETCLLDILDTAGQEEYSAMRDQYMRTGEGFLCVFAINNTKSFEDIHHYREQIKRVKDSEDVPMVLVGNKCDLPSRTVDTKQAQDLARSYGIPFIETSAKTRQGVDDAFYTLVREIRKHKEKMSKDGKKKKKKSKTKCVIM
T6 sequence (P01116 1-169 isoform P01116-2): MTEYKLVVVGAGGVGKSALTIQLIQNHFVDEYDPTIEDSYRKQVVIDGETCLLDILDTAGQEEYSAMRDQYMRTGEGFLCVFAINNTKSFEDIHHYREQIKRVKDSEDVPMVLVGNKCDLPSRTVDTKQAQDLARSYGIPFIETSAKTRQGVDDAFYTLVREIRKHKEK
T4 sequence (P01116 1-169 isoform P01116-2 G12C): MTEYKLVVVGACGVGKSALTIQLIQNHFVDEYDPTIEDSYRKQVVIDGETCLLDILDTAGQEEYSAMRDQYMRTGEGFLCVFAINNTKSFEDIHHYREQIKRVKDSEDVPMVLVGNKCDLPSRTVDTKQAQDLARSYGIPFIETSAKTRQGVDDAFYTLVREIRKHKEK
T5 sequence (P01116 1-169 isoform P01116-2 G12S): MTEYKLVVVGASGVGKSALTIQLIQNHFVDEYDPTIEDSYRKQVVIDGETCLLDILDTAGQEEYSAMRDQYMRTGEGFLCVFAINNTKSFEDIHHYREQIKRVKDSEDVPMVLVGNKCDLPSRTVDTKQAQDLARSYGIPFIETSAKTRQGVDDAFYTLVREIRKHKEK

For `COCC(=O)N(C)C(=O)CCCN(C)c1nc(OC[C@@]23CCCN2C[C@H](F)C3)nc2c(F)c(-c3ccc(F)c4sc(N)c(C#N)c34)c(Cl)cc12` [Example 307, 4-((7-(2-amino-3-cyano-7-fluorobenzo[b]thiophen-4-yl)-6-chloro-8-fluoro-2-(((2R,7aS)-2-fluorotetrahydro-1H-pyrrolizin-7a(5H)-yl)methoxy)quinazolin-4-yl)(methyl)amino)-N-(2-methoxyacetyl)-N-methylbutanamide], the IC50 [1] was 5 nM, the IC50 [2] was 15 nM and the IC50 [3] was 70 nM. It also gave an IC50 (KRas G12C) of 3 nM, an IC50 (KRas G12S) of 2 nM and an IC50 (KRas WT) of 8 nM.
In the case of `Cn1ccc(COC(=O)C2CCN(c3nc(OC[C@@]45CCCN4C[C@H](F)C5)nc4c(F)c(-c5ccc(F)c6sc(N)c(C#N)c56)c(Cl)cc34)CC2)n1` [Example 245, (1-methyl-1H-pyrazol-3-yl)methyl 1-(7-(2-amino-3-cyano-7-fluorobenzo[b]thiophen-4-yl)-6-chloro-8-fluoro-2-(((2R,7aS)-2-fluorotetrahydro-1H-pyrrolizin-7a(5H)-yl)methoxy)quinazolin-4-yl)piperidine-4-carboxylate], the IC50 [1] is reported as 148 nM, the IC50 [2] is reported as 148 nM and the IC50 [3] is reported as 15 nM. It also gave an IC50 (KRas G12C) of 12 nM, an IC50 (KRas G12S) of 8 nM and an IC50 (KRas WT) of 6 nM.
For `CN(CCNC(=O)n1ccnn1)c1nc(OC[C@@]23CCCN2C[C@H](F)C3)nc2c(F)c(-c3ccc(F)c4sc(N)c(C#N)c34)c(Cl)cc12` [Example 249, N-(2-((7-(2-amino-3-cyano-7-fluorobenzo[b]thiophen-4-yl)-6-chloro-8-fluoro-2-(((2R,7aS)-2-fluorotetrahydro-1H-pyrrolizin-7a(5H)-yl)methoxy)quinazolin-4-yl)(methyl)amino)ethyl)-1H-1,2,3-triazole-1-carboxamide], the IC50 [1] was 249 nM, the IC50 [2] was 2 nM and the IC50 [3] was 223 nM. The IC50 (KRas G12C) was < 2 nM, the IC50 (KRas G12S) was 7 nM and the IC50 (KRas WT) was 11 nM.
`CCc1c(F)ccc2cc(O)cc(-c3ncc4c(N5CCC(C(=O)n6cccn6)CC5)nc(OC[C@@]56CCCN5C[C@H](F)C6)nc4c3F)c12` [Example 4, (1-(7-(8-ethyl-7-fluoro-3-hydroxynaphthalen-1-yl)-8-fluoro-2-(((2R,7aS)-2-fluorotetrahydro-1H-pyrrolizin-7a(5H)-yl)methoxy)pyrido[4,3-d]pyrimidin-4-yl)piperidin-4-yl)(1H-pyrazol-1-yl)methanone] showed an IC50 [1] of 69 nM, an IC50 [2] of 5440 nM and an IC50 [3] of 2040 nM. For the same compound, the IC50 (KRas G12C) was 22 nM, the IC50 (KRas G12S) was 9 nM and the IC50 (KRas WT) was 51 nM.
`CCc1c(F)ccc2cc(O)cc(-c3ncc4c(N5CCC(C(=O)N(C)C(C)=O)C5)nc(OC[C@@]56CCCN5C[C@H](F)C6)nc4c3F)c12` (stereo partly drawn) [Example 274, N-acetyl-1-(7-(8-ethyl-7-fluoro-3-hydroxynaphthalen-1-yl)-8-fluoro-2-(((2R,7aS)-2-fluorotetrahydro-1H-pyrrolizin-7a(5H)-yl)methoxy)pyrido[4,3-d]pyrimidin-4-yl)-N-methylpyrrolidine-3-carboxamide] was tested, and the IC50 [1] was 326 nM, the IC50 [2] was 662 nM and the IC50 [3] was 287 nM. The IC50 (KRas G12C) was 65 nM, the IC50 (KRas G12S) was 89 nM and the IC50 (KRas WT) was 51 nM.
With `Cc1ccn(C(=O)CCCNc2nc(OC[C@@]34CCCN3C[C@H](F)C4)nc3c(F)c(-c4ccc(F)c5sc(N)c(C#N)c45)c(Cl)cc23)n1` [Example 142, 2-amino-4-(6-chloro-8-fluoro-2-(((2R,7aS)-2-fluorotetrahydro-1H-pyrrolizin-7a(5H)-yl)methoxy)-4-((4-(3-methyl-1H-pyrazol-1-yl)-4-oxobutyl)amino)quinazolin-7-yl)-7-fluorobenzo[b]thiophene-3-carbonitrile] the IC50 [1] was 7 nM, the IC50 [2] was 8 nM and the IC50 [3] was 531 nM. The IC50 (KRas G12C) was < 2 nM, the IC50 (KRas G12S) was < 2 nM and the IC50 (KRas WT) was 10 nM.
With `CCc1c(F)ccc2cc(O)cc(-c3ncc4c(N5CCC(C(=O)n6nc(C)cc6C)CC5)nc(OC[C@@]56CCCN5C[C@H](F)C6)nc4c3F)c12` [Example 74, (3,5-dimethyl-1H-pyrazol-1-yl)(1-(7-(8-ethyl-7-fluoro-3-hydroxynaphthalen-1-yl)-8-fluoro-2-(((2R,7aS)-2-fluorotetrahydro-1H-pyrrolizin-7a(5H)-yl)methoxy)pyrido[4,3-d]pyrimidin-4-yl)piperidin-4-yl)methanone] the IC50 [1] was 464 nM, the IC50 [2] was 2290 nM and the IC50 [3] was 3330 nM. The IC50 (KRas G12C) was 578 nM, the IC50 (KRas G12S) was 885 nM and the IC50 (KRas WT) was 798 nM.
Compound `CCc1c(F)ccc2cc(O)cc(-c3ncc4c(N5CC6CC(C(=O)N(C)C(C)=O)C6C5)nc(OC[C@@]56CCCN5C[C@H](F)C6)nc4c3F)c12` (stereo partly drawn) [Example 277, N-acetyl-3-(7-(8-ethyl-7-fluoro-3-hydroxynaphthalen-1-yl)-8-fluoro-2-(((2R,7aS)-2-fluorotetrahydro-1H-pyrrolizin-7a(5H)-yl)methoxy)pyrido[4,3-d]pyrimidin-4-yl)-N-methyl-3-azabicyclo[3.2.0]heptane-6-carboxamide] has an IC50 [1] of 549 nM, an IC50 [2] of 6510 nM and an IC50 [3] of 2360 nM. The IC50 (KRas G12C) was 864 nM, the IC50 (KRas G12S) was 539 nM and the IC50 (KRas WT) was 357 nM.
`N#Cc1c(N)sc2c(F)ccc(-c3c(Cl)cc4c(N5CCC(C(=O)N6CCOCC6)CC5)nc(OC[C@@]56CCCN5C[C@H](F)C6)nc4c3F)c12` [Example 241, 2-amino-4-(6-chloro-8-fluoro-2-(((2R,7aS)-2-fluorotetrahydro-1H-pyrrolizin-7a(5H)-yl)methoxy)-4-(4-(morpholine-4-carbonyl)piperidin-1-yl)quinazolin-7-yl)-7-fluorobenzo [b]thiophene-3-carbonitrile] gave an IC50 [1] of 367 nM, an IC50 [2] of 163 nM and an IC50 [3] of 27 nM. It also gave an IC50 (KRas G12C) of 11 nM, an IC50 (KRas G12S) of 11 nM and an IC50 (KRas WT) of 5 nM.
`COC(=O)CCCN(C)c1nc(OC[C@@]23CCCN2C[C@H](F)C3)nc2c(F)c(-c3ccc(F)c4sc(N)c(C#N)c34)c(Cl)cc12` [Example 217, methyl 4-((7-(2-amino-3-cyano-7-fluorobenzo[b]thiophen-4-yl)-6-chloro-8-fluoro-2-(((2R,7aS)-2-fluorotetrahydro-1H-pyrrolizin-7a(5H)-yl)methoxy)quinazolin-4-yl)(methyl)amino)butanoate] was tested, and the IC50 [1] was 6880 nM, the IC50 [2] was 296 nM and the IC50 [3] was 763 nM. It also gave an IC50 (KRas G12C) of 5 nM, an IC50 (KRas G12S) of 7 nM and an IC50 (KRas WT) of 9 nM.
In the case of `CN(CCCC(=O)Oc1ccc(F)cc1F)c1nc(OC[C@@]23CCCN2C[C@H](F)C3)nc2c(F)c(-c3ccc(F)c4sc(N)c(C#N)c34)c(Cl)cc12` [Example 271, 2,4-difluorophenyl 4-((7-(2-amino-3-cyano-7-fluorobenzo[b]thiophen-4-yl)-6-chloro-8-fluoro-2-(((2R,7aS)-2-fluorotetrahydro-1H-pyrrolizin-7a(5H)-yl)methoxy)quinazolin-4-yl)(methyl)amino)butanoate], the IC50 [1] is reported as 139 nM, the IC50 [2] is reported as 31 nM and the IC50 [3] is reported as 177 nM. It also gave an IC50 (KRas G12C) of 4 nM, an IC50 (KRas G12S) of 16 nM and an IC50 (KRas WT) of 81 nM.
Work on `CN(CCNC(=O)n1cncn1)c1nc(OC[C@@]23CCCN2C[C@H](F)C3)nc2c(F)c(-c3ccc(F)c4sc(N)c(C#N)c34)c(Cl)cc12` [Example 228, N-(2-((7-(2-amino-3-cyano-7-fluorobenzo[b]thiophen-4-yl)-6-chloro-8-fluoro-2-(((2R,7aS)-2-fluorotetrahydro-1H-pyrrolizin-7a(5H)-yl)methoxy)quinazolin-4-yl)(methyl)amino)ethyl)-1H-1,2,4-triazole-1-carboxamide] yielded an IC50 [1] of 448 nM, an IC50 [2] of 9 nM and an IC50 [3] of 252 nM. It also gave an IC50 (KRas G12C) of 3 nM, an IC50 (KRas G12S) of 8 nM and an IC50 (KRas WT) of 13 nM.
With `CCc1c(F)ccc2cc(O)cc(-c3ncc4c(N5CCC(C(=O)n6cc(C(C)C)cn6)CC5)nc(OC[C@@]56CCCN5C[C@H](F)C6)nc4c3F)c12` [Example 80, (1-(7-(8-ethyl-7-fluoro-3-hydroxynaphthalen-1-yl)-8-fluoro-2-(((2R,7aS)-2-fluorotetrahydro-1H-pyrrolizin-7a(5H)-yl)methoxy)pyrido[4,3-d]pyrimidin-4-yl)piperidin-4-yl)(4-isopropyl-1H-pyrazol-1-yl)methanone] the IC50 [1] was 431 nM, the IC50 [2] was 9700 nM and the IC50 [3] was 3380 nM. It also gave an IC50 (KRas G12C) of 307 nM, an IC50 (KRas G12S) of 197 nM and an IC50 (KRas WT) of 432 nM.
For `CCc1c(F)ccc2cc(O)cc(-c3ncc4c(N5CCC(C(=O)N(C)C(=O)COC)CC5)nc(OC[C@@]56CCCN5C[C@H](F)C6)nc4c3F)c12` [Example 209, 1-(7-(8-ethyl-7-fluoro-3-hydroxynaphthalen-1-yl)-8-fluoro-2-(((2R,7aS)-2-fluorotetrahydro-1H-pyrrolizin-7a(5H)-yl)methoxy)pyrido[4,3-d]pyrimidin-4-yl)-N-(2-methoxyacetyl)-N-methylpiperidine-4-carboxamide], the IC50 [1] was 281 nM, the IC50 [2] was 1460 nM and the IC50 [3] was 1110 nM. The IC50 (KRas G12C) was 168 nM, the IC50 (KRas G12S) was 165 nM and the IC50 (KRas WT) was 496 nM.
